The values below come from patent US11942223B1, “Systems and methods for rapid gene set enrichment analysis” (Immuneering Corporation, priority 2018, dated 2024).

The test system of data set [1] is MDA-MB-231 cells. Briefly: Transwell ECM-based invasion assay, MDA-MB-231. The format is cell-based, human. To be noted: for inhibition of tumor cell invasion: MDA-MB-231, three GSK3 inhibitors, FIG. 7B. How it is done: To experimentally test the in silico predictions made by Cosiner™ and to pursue an inhibitor of metastasis, an in vitro ECM-based invasion assay was performed. An invasion assay is an in vitro proxy for the process of cells migrating and breaking through the extracellular matrix as would occur in the body during metastasis. All three GSK3A/GSK3B inhibitors tested were effective at inhibiting the invasion of the human triple negative breast cancer cell model MDA-MB-231 cells (FIG. 7B). […] Cell viability was determined at 10 μM by CellTiter-Glo® (CTG). […] At 10 μM doses, off-target effects can confound pharmacologic interpretations not to mention that it is unlikely to be a physiologically feasible dose for mice or humans. The viability at for each of the line as tested with each of these drugs was 76.4% for CHIR-99021 and 80.5% for 6-BIO 10 μM of drug by CTG.
(§1) Culture medium was removed when cells reached 80% confluence. Cultures were gently rinsed with PBS to remove all the remaining serum. Serum-free medium was added to the cultures and they were incubated overnight at 37° C. 5% CO2.
(§2) 786-O. NCI-H460, NCI-H226, MDA-MB-231 and DU-145 cells were tested in transwells with 3 μm pores. HCT-116, PC-3, MDA-MB-453 and COLO-205 cells were tested in transwells with 8 μm pores.
(§3) First, the Matrigel® was thawed in an ice bath in a refrigerator (4° C.) overnight. Matrigel® was then diluted into serum-free, cold cell culture media (1:8 dilution). 20 μL of diluted Matrigel®) was added into each well of BD Falcon™ Multiwell 96-well cell culture inserts. Transwell inserts were incubated at 37° C., for at least 4 to 5 hours for gelling. Before use, the transwells were rehydrated by adding 100 μL PBS to the insert and incubated at 37° C., in ambient air for 2 hours.
Cells were harvested using Trypsin and washed once with serum free medium. Cells were resuspended with serum-free medium. The 786-O cell density was adjusted to 2×10^5 cells/mL; the NCI-H460 and NCI-H226 cell density was adjusted to 5×10^6 cells/mL; the MDA-MB-231 and DU-145 cell density was adjusted to 1×10^6 cells/mL; the HCT-116 cell density was adjusted to 5×10^6 cells/mL; the PC-3 cell density to 1×10^6 cell/mL; the MDA-MB-453 cell density was adjusted to 5×10^5 cells/mL; and the COLO-205 cell density was adjusted to 2×10^6 cells/mL.
Cells were pre-treated with compounds, which were dissolved in DMSO and diluted to the desired concentration in culture medium. The pretreatment was performed in Ultra-low attachment multiwell plates. 90 μL cells and 10 μL compound solution were mixed in each well of the plate. The plate was covered with a lid and incubated for 60 minutes. 50 μL of cells was seeded onto each top insert, which was pre-coated with 1:8 diluted Matrigel®. 180 μL of warm (37° C.) culture medium containing 10% FBS was added to the lower chamber of the transwell plate. 200 μL serum-free medium and 20 μL of compound dilution was added to the indicated lower chamber as the negative control. The 96-Multiwell Insert system was transferred to the incubator for 16 hours at 37° C., and 5% CO2. Next, the insert was transferred to a new plate. The lower chambers were centrifuged at 3000 rpm for 5 minutes and then washed twice with PBS.
The insert was transferred back to the lower chamber and 200 μL of the DiTC12(3) fluorescent dye solution was added. The final concentration of DiIC12(3) was 5 μg/mL. Plates were incubated for 30 minutes at 37° C., and 5% CO2. The plates were then washed with PBS twice. The invaded/migrated cells were monitored by reading fluorescence at 530/590 nm on a PerkinElmer EnSpire™ plate reader.
Percent inhibition for compound was calculated using Formula 6.
The positive control was DMSO treated and had medium with 10% FBS (average of 3 wells per cell line) in receiver well. The negative control was DMSO treated with no FBS in the receiver well (average of 3 wells per cell line). […]

Data set [2] relates to MDA-MB-231 cells. Briefly: CellTiter-Glo viability, MDA-MB-231. The class given is cell-based, human. As to conditions: MDA-MB-231, 10 μM of drug. How it is done: (§4) Viability was determined at the maximum drug concentration measured in a given experiment via CellTiter-Glo® (CTG) per manufacturers recommendations: https://www.promega.com/-/media/files/resources/protocols/technical-bulletins/0/celltiter-glo-luminescent-cell-viability-assay-protocol.pdf?la=en.

Data set [3] can be described thus: CellTiter-Glo viability, MDA-MB-231. The format is cell-based, human. As to conditions: human, MDA-MB-231 cells; for viability at 10 µM: MDA-MB-231, 10 μM of drug. How it is done:
as §4
A general note: ATP-based viability assays read luminescence as a measure of living cells.

Data set [4] relates to COLO-205 (colon cancer) cells. Briefly: Transwell invasion assay, COLO-205. The class given is cell-based. As to conditions: COLO-205, cell line panel, FIG. 9B. How it is done: as §1, §2, §3
(§5) Cells were harvested using Trypsin and washed once with serum free medium. Cells were resuspended with serum-free medium. […]
(§6) The insert was transferred back to the lower chamber and 200 μL of the DiTC12(3) fluorescent dye solution was added. […] The invaded/migrated cells were monitored by reading fluorescence at 530/590 nm on a PerkinElmer EnSpire™ plate reader.
(§7) Percent inhibition for compound was calculated using Formula 6. […]

The subject of data set [5] is DU-145 (prostate cancer) cells. Briefly: Transwell invasion assay, DU-145. The class given is cell-based. As to conditions: DU-145, cell line panel, FIG. 9A. How it is done: as §1, §2, §3, §5, §6, §7
Data set [6] in a line: CellTiter-Glo viability, COLO-205. The format is cell-based. As to conditions: human, COLO-205 cells; COLO-205, 600 nM; read-out: cell viability by CellTiter-Glo. How it is done: as §4
A further data set has as its system A549 (lung cancer) cells. The data set is described as follows: Transwell invasion assay, A549. To be noted: A549, previous experiment, FIG. 9B. The format is cell-based. The method, then:
as §1, §3
Cells were pre-treated with compounds, which were dissolved in DMSO and diluted to the desired concentration in culture medium. The pretreatment was performed in Ultra-low attachment multiwell plates. 90 μL cells and 10 μL compound solution were mixed in each well of the plate. The plate was covered with a lid and incubated for 60 minutes. […]
as §6, §7

The subject of data set [7] is 786-O (renal cancer) cells. The data set is described as follows: Transwell invasion assay, 786-O. The class given is cell-based. To be noted: cell line panel, FIG. 9A. The method, then:
as §1, §2, §3, §5, §6, §7

Data set [8] has as its system NCI-H226 (lung cancer) cells. Briefly: Transwell invasion assay, NCI-H226. The format is cell-based. To be noted: NCI-H226, cell line panel, FIG. 9A. How it is done: as §1, §2, §3, §5, §6, §7
Data set [9] is described as follows: CellTiter-Glo viability, PC-3. The class given is cell-based. To be noted: human, PC-3 cells; PC3, 600 nM; read-out: cell viability by CellTiter-Glo. The method, then:
as §4

The nature of data set [10]: CellTiter-Glo viability, A549. The class given is cell-based. To be noted: human, A549 cells; A549, 600 nM; read-out: cell viability by CellTiter-Glo. How it is done: as §4
Data set [11] concerns PC-3 (prostate cancer) cells. The data set is described as follows: Transwell invasion assay, PC-3. To be noted: PC-3, cell line panel, FIG. 9A. The format is cell-based. How it is done:
as §1, §2, §3, §5, §6, §7

Data set [12] can be described thus: CellTiter-Glo viability, NCI-H226. The format is cell-based. As to conditions: human, NCI-H226 cells; NCI-H226, 600 nM; read-out: cell viability by CellTiter-Glo. How it is done:
as §4

A short description of data set [13]: CellTiter-Glo viability, MDA-MB-453. The format is cell-based. To be noted: human, MDA-MB-453 cells; MDA-MB-453, 600 nM; read-out: cell viability by CellTiter-Glo. The method, then: as §4
The subject of data set [14] is MDA-MB-453 (breast cancer) cells. Briefly: Transwell invasion assay, MDA-MB-453. The format is cell-based. As to conditions: MDA-MB-453, cell line panel, FIG. 9B; low baseline invasiveness. The method, then:
as §1, §2, §3, §5, §6, §7

A short description of data set [15]: CellTiter-Glo viability, 786-O. The class given is cell-based. As to conditions: human, 786-O cells, 600 nM, assay threshold 80%, read-out: cell viability by CellTiter-Glo. The method, then:
as §4

Data set [16] can be described thus: CellTiter-Glo viability, DU-145. The format is cell-based. As to conditions: human, DU-145 cells; DU-145, 600 nM; read-out: cell viability by CellTiter-Glo. The method, then:
as §4

The nature of data set [17]: CellTiter-Glo viability, HCT-116. To be noted: human, HCT-116 cells; HCT-166 (so in the source), 600 nM; read-out: cell viability by CellTiter-Glo. The format is cell-based. The method, then:
as §4

The subject of data set [18] is HCT-116 (colon cancer) cells. The data set is described as follows: Transwell invasion assay, HCT-116. To be noted: HCT-116, cell line panel, FIG. 9B; low baseline invasiveness. The class given is cell-based. How it is done: as §1, §2, §3, §5, §6, §7
Data set [19] can be described thus: CellTiter-Glo viability, NCI-H460. The format is cell-based. To be noted: human, NCI-H460 cells; NCI-H460, 600 nM; read-out: cell viability by CellTiter-Glo. How it is done: as §4
Data set [20] relates to NCI-H460 (lung cancer) cells. The data set is described as follows: Transwell invasion assay, NCI-H460. To be noted: NCI-H460, cell line panel, FIG. 9A. The format is cell-based. How it is done: as §1, §2, §3, §5, §6, §7
Setting [21] is: read-out: cell viability by CellTiter-Glo.

For `O=C1Nc2cc(Br)ccc2/C1=C1/Nc2ccccc2/C1=N\O` [6-BIO], the “inhibition of tumor cell invasion” value with MDA-MB-231 cells [1] is “inhibited tumor cell invasion but only at the higher dose levels tested (e.g., 1-10 μM)”. Also, in the data set on MDA-MB-231 cells [2], the “cell viability by CellTiter-Glo” value was 80.5%.
As for `Cc1c[nH]c(-c2cnc(NCCNc3ccc(C#N)cn3)nc2-c2ccc(Cl)cc2Cl)n1` [CHIR-99021], the “inhibition of tumor cell invasion” value with MDA-MB-231 cells [1] is listed as “inhibited tumor cell invasion but only at the higher dose levels tested (e.g., 1-10 μM)”. The viability (commonly the share of living cells, or the viability signal relative to a control) at 10 µM in data set [3] (setting [21]) was 76.4%.
Take `O=C1NC(=O)C(c2cnc3ccccn23)=C1c1cn2c3c(cc(F)cc13)CN(C(=O)N1CCCCC1)CC2` [LY-2090314]: the inhibition of invasion entry in [4] is listed as “did not significantly inhibit”; in [5], “markedly inhibited”; in the data set on A549 (lung cancer) cells, “did not significantly inhibit”; with MDA-MB-231 cells [1] (MDA-MB-231, cell line panel, FIG. 9A, average of 6 wells) it was “markedly inhibited”; in data set [7], “markedly inhibited”; in data set [8] it was “markedly inhibited”. The inhibition of invasion result in [11] is reported as “markedly inhibited”; in data set [14], “did not significantly inhibit”; in [18] it was “did not significantly inhibit”; in data set [20] it was “markedly inhibited”. Further, the viability at 0.6 µM in [6] was approximately 100%; in data set [3] (MDA-MB-231, 600 nM of drug, dose response experiment (FIG. 8), read-out: cell viability by CellTiter-Glo), 93.5%; in data set [3] (MDA-MB-231, 600 nM, cell line panel experiment (FIG. 9A)), 95.5%; in data set [9], approximately 100%; in data set [10], 99.3%; in [12] it was approximately 100%. Further, the viability at 0.6 µM was approximately 100% in data set [13]; 83% in data set [15]; approximately 100% in data set [16]; approximately 97.7% in data set [17]; approximately 100% in [19]. Also, in the data set on MDA-MB-231 cells [1] (Homo sapiens, MDA-MB-231, dose response FIG. 8, average of 6 wells, read-out: 50% inhibition of baseline invasion), the IC50 was approximately 5 nM. Besides, the “dose of maximal inhibition of tumor cell invasion” value in the data set with MDA-MB-231 cells [1] (MDA-MB-231, dose response FIG. 8, average of 6 wells) is recorded as “approximately 24 nM”. Further, the “inhibition of tumor cell invasion” value in the data set on MDA-MB-231 cells [1] is recorded as “inhibited tumor cell invasion at all concentrations tested”. The viability at 10 µM in data set [3] (setting [21]) was approximately 100%.
